Data as given in paper PMC12845078 (Pharmaceuticals, 2025).

How the values were obtained:
[1] = Whole blood/plasma distribution ratio, mouse; type: in vitro ADME
Method: (§3) After incubation for 20 min, a portion of the whole blood was centrifuged at 2500× g for 10 min at 4 °C to separate plasma; another portion of the whole blood was subjected to three cycles of freeze–thawing and ultrasonicated for 10 min to disrupt cells. Equal volumes of plasma and whole blood samples were added to the whole blood and plasma specimens, respectively, followed by protein precipitation with acetonitrile containing an internal standard (IS). […] The RED inserts were placed in the matching incubation plate: 200 µL of drug-containing matrix were added to the sample chamber, and 400 µL of PBS buffer (pH: 7.4) were added to the buffer chamber. After incubation in a constant-temperature shaking incubator for 6 h (37 °C), samples from the sample chamber and buffer chamber were diluted 1:1 with PBS or matrix, respectively, and proteins were precipitated with acetonitrile containing IS.

[2] = Protein binding with hepatic microsomes and plasma proteins across species (summary); type: in vitro ADME; conditions: beagle (dog), rat, human, liver microsomes and plasma, pH 7.4, both hepatic microsomes and plasma proteins
Method: as §3

[3] = target: T1, CYP enzymes involved in melatonin 6-hydroxylation (Canis lupus familiaris, UniProt P56592); experiment: Competitive inhibition of CBD on MT 6-hydroxylation, beagle liver microsomes; type: in vitro ADME; conditions: dog, probe melatonin (MT) 1 μM, 6-hydroxylation to 6-HMT
T1 sequence (P56592 2-512): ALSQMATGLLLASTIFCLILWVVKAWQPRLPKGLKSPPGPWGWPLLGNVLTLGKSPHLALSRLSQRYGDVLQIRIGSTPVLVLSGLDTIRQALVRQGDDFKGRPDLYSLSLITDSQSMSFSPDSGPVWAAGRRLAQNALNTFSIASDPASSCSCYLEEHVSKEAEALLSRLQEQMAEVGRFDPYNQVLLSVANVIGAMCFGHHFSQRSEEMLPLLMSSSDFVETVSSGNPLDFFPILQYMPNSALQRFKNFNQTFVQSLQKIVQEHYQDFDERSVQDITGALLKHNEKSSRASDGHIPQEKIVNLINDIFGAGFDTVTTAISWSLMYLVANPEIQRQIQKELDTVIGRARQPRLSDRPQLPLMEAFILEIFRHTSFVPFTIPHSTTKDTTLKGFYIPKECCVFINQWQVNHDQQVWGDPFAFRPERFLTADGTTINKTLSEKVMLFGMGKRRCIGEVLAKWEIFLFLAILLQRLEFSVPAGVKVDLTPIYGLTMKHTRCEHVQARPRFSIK
Method: The final incubation system contained 100 mM PBS, 5 mM MgCl2, 0.5 mg/mL liver microsomal protein, and 1 mM NADPH. […] The final concentration of MT was 1 μM.

[4] = target: T2, CYP enzymes mediating MT 6-hydroxylation in human liver microsomes (CYP1A2) (Homo sapiens, UniProt P05177); experiment: Irreversible (mechanism-based) inhibition of CBD on MT 6-hydroxylation, human liver microsomes; type: in vitro ADME
T2 construct: tissue XenoTech; host or cells: human liver microsomes
T2 sequence (P05177 1-516): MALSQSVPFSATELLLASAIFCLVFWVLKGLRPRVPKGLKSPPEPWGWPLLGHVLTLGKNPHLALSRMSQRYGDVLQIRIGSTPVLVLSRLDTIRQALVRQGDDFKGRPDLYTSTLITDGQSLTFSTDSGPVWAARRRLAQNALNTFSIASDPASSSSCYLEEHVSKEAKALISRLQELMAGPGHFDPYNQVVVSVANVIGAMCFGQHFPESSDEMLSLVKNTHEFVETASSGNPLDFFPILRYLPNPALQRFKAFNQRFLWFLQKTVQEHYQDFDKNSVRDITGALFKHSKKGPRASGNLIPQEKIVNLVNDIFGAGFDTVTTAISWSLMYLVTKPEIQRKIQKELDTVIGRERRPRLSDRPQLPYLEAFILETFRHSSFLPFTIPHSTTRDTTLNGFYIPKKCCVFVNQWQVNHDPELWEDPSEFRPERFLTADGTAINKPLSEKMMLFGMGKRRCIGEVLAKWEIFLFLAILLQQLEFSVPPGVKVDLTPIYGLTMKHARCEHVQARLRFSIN
Method: (§1) The reaction was initiated by adding the NADPH working solution that had also been pre-incubated for 5 min. […] After pre-incubation for different durations (0, 5, 10, 20, 30 min), 10 μL of the incubation mixture were transferred to a secondary incubation system containing 148 μL PBS and 2 μL MT working solution (final MT concentration: 200 μM). An additional 40 μL of NADPH were added, and the mixture was incubated for 30 min.
(§2) Irreversible inhibition assays: A semi-logarithmic curve was generated by plotting residual enzyme activity against pre-incubation time. The observed CYP enzyme inactivation rate (Kobs) was derived from the initial slope of the linear regression. The Lineweaver-Burk double reciprocal curve (1/Kobs vs. 1/I) described by Formula (8) was used to determine KI and Kinact: Kinact was estimated from the reciprocal of the Y-intercept, and KI was obtained from the negative reciprocal of the X-intercept.(8) 1/k=KI/Kinact1/I+1/Kinact

[5] = target: T3, CYP1A2 (CYP enzymes mediating MT 6-hydroxylation) (Homo sapiens, UniProt P05177); experiment: as above; type: in vitro ADME; conditions: probe melatonin (MT) 200 µM, 6-hydroxylation to 6-HMT
T3 construct: tissue XenoTech; host or cells: human liver microsomes
T3 sequence (P05177 1-516): T2 sequence (P05177 1-516)
Method: as §1, §2

[6] = system: CYP enzymes mediating MT 6-hydroxylation in rat liver microsomes; experiment: Irreversible (mechanism-based) inhibition of CBD on MT 6-hydroxylation, rat liver microsomes; type: in vitro ADME
Method: as §1, §2

[7] = system: CYP enzymes of MT 6-hydroxylation; experiment: in vitro; conditions: rat, liver microsomes, probe melatonin (MT) 2 μM, 6-hydroxylation to 6-HMT, IC50 Ratio (IC50 shift), RLM, 30 min pre-incubation with/without NADPH
Method: (§4) The reaction was initiated by adding pre-warmed NADPH (control groups lacked NADPH). The final incubation mixture contained 100 mM PBS, 5 mM MgCl2, liver microsomes (0.5 mg/mL), 1 mM NADPH, and 0.2% BSA. […] Concentrations in beagle dog microsomal incubations were 0, 0.125, 0.25, 0.5, 1, 2, 4, 8, 16, and 32 μM. […] All samples were prepared in triplicate. The concentration of 6-HMT was quantified using LC-MS/MS.
(§5) Competitive inhibition and time-dependent inhibition assays: The production of 6-HMT without inhibitors was set as 100%.

[8] = system: CYP enzymes of MT 6-hydroxylation; experiment: in vitro; conditions: beagle, dog, liver microsomes, probe melatonin (MT) 2 μM, 6-hydroxylation to 6-HMT, IC50 Ratio (IC50 shift), DLM, 30 min pre-incubation with/without NADPH
Method: as §4, §5

[9] = system: CYP enzymes of MT 6-hydroxylation; experiment: in vitro; conditions: human, liver microsomes, probe melatonin (MT) 2 μM, 6-hydroxylation to 6-HMT, IC50 Ratio (IC50 shift), HLM, 30 min pre-incubation with/without NADPH
Method: as §4, §5

[10] = system: CYP1A2-mediated metabolism of MT; conditions: cited from earlier work
[11] = system: liver microsomes from different species; experiment: Effect of MT on in vitro metabolism of CBD in liver microsomes; type: in vitro ADME, human, rat, beagle; conditions: CBD 1 μM, MT up to 32 μM
Method: The reaction was initiated by adding pre-incubated NADPH. The system contained liver microsomes at 0.5 mg/mL and NADPH at 1 mM (both diluted in PBS containing MgCl2). […] All samples were prepared in triplicate. The content of CBD was determined by LC-MS/MS.

[12] = system: CYP1A2-mediated metabolism of MT; experiment: Static DDI model prediction of CBD's impact on MT exposure, human; conditions: input of static DDI model
From the text: (AUC when co-administered with the inhibitor) to AUC[contr] (AUC without the inhibitor).

[13] = read-out: Km of MT 6-hydroxylation; HLM
in vitro [14] = conditions: rat, liver microsomes
in vitro [15] = conditions: human, liver microsomes, Km of MT 6-hydroxylation, HLM

Row | SMILES | Rb/p (Ratio) [1] | fraction unbound at 6 h [2] | IC50 at 30 min ([3]; IC50, beagle, as listed in Table 6 for static DDI model) | IC50 at 30 min ([3]; IC50, inhibition of MT 6-hydroxylation, DLM, MT 1 μM) | Ki [4] | Ki ([5]; human, liver microsomes) | kinact ([5]; human liver microsomes) | irreversible inhibitory effect [6] | IC50 shift at 30 min [7] | IC50 shift at 30 min [8] | IC50 shift at 30 min [9] | [I]h (estimated free concentration in liver) ([10]; human, CBD dose 2000 mg) | [I]h, concentration adopted for human ([10]; oral administration of 2000 mg CBD) | competitive inhibition of CBD metabolism by MT [11] | fm(CYP1A2), proportion of MT metabolized by CYP1A2 [12] | Km [13] | Km at 15 min (in vitro [14]) | Km at 15 min (in vitro [15])
1 | C=C(C)[C@@H]1CCC(C)=C[C@H]1c1c(O)cc(CCCCC)cc1O [CBD, Cannabidiol] | 0.82 (0.19) | < 0.01 | 650 nM | 3420 ± 1300 nM | 25600 nM | 18.7 nM | 0.00105 s⁻¹ | no irreversible inhibitory effect was observed | 1.81 | 1.27 | 2.55 | 3.55 µM | 3.55 µM |  |  |  |  | 
2 | COc1ccc2[nH]cc(CCNC(C)=O)c2c1 [MT, Melatonin] |  |  |  |  |  |  |  |  |  |  |  |  |  | does not exert competitive inhibition on CBD | 0.92 | 165 µM | 147 µM | 165 µM
